Reference: ChEMBL document CHEMBL1150526, “Isolation and X-ray crystal structure of racemic Xestospongin D from the Singapore marine sponge Niphates sp1” (1996)
≈ marks a conversion by molar mass, not a printed value.

Tests used:
Assay type in all cases: functional
[1] = system: Micrococcus luteus; assay: Compound was evaluated for the inhibition of growth of Micrococcus luteus; (12.5-25 ug/disk)
[2] = system: Breast cancer cell line; assay: Compound was evaluated for its activity to inhibit growth of human breast cancer cell line
[3] = system: P388; assay: Compound was evaluated for its activity to inhibit growth of murine P388 lymphocytic leukemia; settings: Mus musculus, read-out: ED50 (the source's name)
[4] = system: Leukemia cell; assay: Compound was evaluated for its activity to inhibit growth of human leukemia cancer cell line

O[C@@]12CCCCCC[C@H]3CCN4CCC[C@H](CCCCCC[C@H]5CCN(CCC1)[C@@H]2O5)[C@H]4O3 [XESTOSPONGIN D]
MIC [1]: 25 ug disk-1 | GI50 [2]: 4.53 µM | EC50 [3]: 1.7 µg/mL (≈ 3.67 µM) | GI50 [4]: 3.62 µM
